One molecule from patent US4663320A, “(2-oxo-1,2,3,5-tetrahydroimidazo[2,1-b]quinoazolinyl)oxyalkylamides, compositions and the use thereof” (Syntex (U.S.A.) Inc., priority 1985, dated 1987) can be followed below.

One data set deals with Mongrel dogs. The experiment in a line: Inotropic activity in anesthetized dogs. The settings on record: dog, intraduodenal. The data set is classed as in vivo. On the procedure:
Mongrel dogs were anesthetized intravenously with 35 mg/Kg sodium pentobarbital and supplemented as needed. Blood pressure was measured with a Statham pressure transducer via a cannula inserted from a femoral artery into the abdominal aorta. Heart rate was recorded by a cardiotachometer from a lead II electrocardiogram. Right ventricular contractile force was recorded from a Walton-Brodie strain gauge sutured to the right ventricle following a midsternal thoracotomy. A Harvard respirator was used to ventilate the dogs with room air through an endotracheal tube. The dog was bilaterally vagotomized. Following a midline laparotomy, a cannula was sutured into the duodenum for intraduodenal administration of test compound. A femoral vein was cannulated for administration of isoproterenol. All data were recorded on a Beckman R611 Dynograph.
To assess the responsiveness of each dog, isoproterenol was given intravenously at half-log interval doses from 0.007 to 2.1 or 6.67 μg/Kg. The test compound was then administered intraduodenally, usually at a low dose of 2 mg/Kg and subsequently at higher doses of 6.32 and/or 20 mg/Kg, if necessary. In a few instances, some compounds administered intraduodenally at dose levels from 0.316 to 3.16 mg/Kg.

The subject of data set [1] is Human platelet cyclic AMP phosphodiesterase. The experiment in a line: Cyclic AMP phosphodiesterase assay (human platelet). The data set is classed as biochemical. On the procedure:
(§1) The inhibition of cyclic AMP phosphodiesterase activity by the subject compounds was assayed by the method of Filburn and Karn, Analyt. Biochem., 52:505-516 (1973), using 1 μM cyclic AMP as the substrate. Human platelet cyclic AMP phosphodiesterase was obtained from human donors. Platelets were isolated and washed by centrifugation, the membranes ruptured by a sequential freeze-thaw procedure and hypotonic lysis and the soluble enzyme isolated by high speed centrifugation. The enzyme was stored in aliquots at -20° C.
(§2) This table contains the IC50 values for human platelet phosphodiesterase and IC25 values for rat heart phosphodiesterase.

For a further data set, the system named is Lewis Lung Carcinoma. Briefly: Antimetastatic activity against Lewis Lung Carcinoma (Spontaneous Metastases). The data set is classed as in vivo, mouse. The settings on record: oral 5 mg/kg every other day, day 20-21, p < 0.05. The protocol:
Mice (female, C57B1/6, 16-18 gm) were inoculated subcutaneously between the inguinal and axillary areas with 0.2 ml of a freshly prepared tumor brei. Mice were treated orally with control vehicle (0.5% carboxymethylcellulose (CMC) or with test compound in suspension in 0.5% CMC. Treatments were initiated one day after tumor implantation, and continued every other day throughout the experiment. 20-21 days after initial implantation of the tumor, mice were sacrificed, weight of the primary tumor was determined, and the number of lung metastases was determined by counting under a disecting microscope. The results are shown in Table III.

In data set [2] the test system is rat heart phosphodiesterase. Briefly: Cyclic AMP phosphodiesterase inhibition (rat heart). The data set is classed as biochemical. On the procedure:
as §1, §2

A further data set relates to B16-F10 melanoma cells. Briefly: Antimetastatic activity against B-16 Melanoma (B16-F10). Type of data set: in vivo, mouse. The settings on record: oral 5 mg/kg every other day, day 20-21, control 23, p ≤ 0.01. On the procedure: (§3) Mice (female, C57B1/6, 16-18 gm) were injected intravenously with either 7.5×10^4 viable B16-BL6 or B16-F10 melanoma cells, as indicated. The mice were orally treated with vehicle or drug, starting one day after tumor cell injection, and continuing every other day until the mice were sacrificed 20-21 days after tumor cell inoculation. The number of lung metastases was determined as described above, and the results are shown in Table IV (B16-BL6) or Table V (B16-F10).

The test system of another data set is B16-BL6 melanoma cells. Briefly: Antimetastatic activity against B-16 Melanoma (B16-BL6). The settings on record: oral 5 mg/kg every other day, day 20-21, control 10, p ≤ 0.02. Type of data set: in vivo, mouse. On the procedure:
as §3

The subject of the next data set is male mice (Sim:(ICR)fBR). The experiment in a line: Acute and delayed toxicity in mice. The data set is classed as in vivo. The settings on record: deaths/animals. The protocol:
(§4) Three groups of three male mice (Sim:(ICR)fBR) in a weight range of 20 to 24 grams were used in this study. N-cyclohexyl-N-methyl-4-(2-oxo-1,2,3,5-tetrahydroimidazo[2,1-b]quinazolin- 7-yl)oxy-butyramide was administered intraperitoneally as an aqueous suspension (polysorbate 80).
(§5) When the test compound was administered orally, also as an aqueous suspension (polysorbate 80), the results are as follows: […]

Data set [3] in a line: Acute and delayed toxicity in mice. Type of data set: in vivo. The settings on record: mouse, in vivo, mice, aqueous suspension (polysorbate 80). The protocol: as §4, §5

The structures appear in SMILES notation. Like-named read-outs stand apart in the source and are kept apart here.

On to `CN(C(=O)CCCOc1ccc2c(c1)CN1CC(=O)NC1=N2)C1CCCCC1` [N-cyclohexyl-N-methyl-4-(2-oxo-1,2,3,5-tetrahydroimidazo[2,1-b]quinazolin-7-yl)oxybutyramide], for which the results for the “Blood Pressure, peak effect as % of max. isoproterenol” value in the data set with Mongrel dogs (2 mg/kg) and with Mongrel dogs (6.23 mg/kg) were 25% and 96%, respectively. In addition, the “Heart Rate, peak effect as % of max. isoproterenol” value turned out to be 30% with Mongrel dogs (2 mg/kg) and 40% in the data set with Mongrel dogs (6.23 mg/kg). In addition, the “Rt. Ventricular Contractile Force, peak effect as % of max. isoproterenol” value amounted to 48% in the data set with Mongrel dogs (2 mg/kg) and 44% in the data set with Mongrel dogs (6.23 mg/kg). The IC50 in data set [1] (human platelet phosphodiesterase, 1 μM cyclic AMP as substrate) was 12.5 nM. Besides, in data set [1] (relative to theophylline (assigned a value of 1) on human platelet phosphodiesterase), the “Relative Potency” value is given as 21,600. For the same molecule, the “Pulmonary Metastases Median” value came to 10.5 in the data set with Lewis Lung Carcinoma (control 28), 1.5 with B16-F10 melanoma cells and 3 in the data set on B16-BL6 melanoma cells. The “Size of Primary Tumor” value in the data set on Lewis Lung Carcinoma (± S.E., control 5.1 ± 0.4) is on record as 3.9 ± 0.4 gm. For the same molecule, the “Rat Heart IC25” value in data set [2] turned out to be 260 nM. Further, the Death is reported as 0/3 with male mice (Sim:(ICR)fBR) (intraperitoneal, 500 mg/Kg); 0/3 in the data set with male mice (Sim:(ICR)fBR) (intraperitoneal, 1,000 mg/Kg); 0/3 in the data set with male mice (Sim:(ICR)fBR) (intraperitoneal, 1,500 mg/Kg); 0/3 in the data set with male mice (Sim:(ICR)fBR) (oral, 500 mg/Kg); 0/3 with male mice (Sim:(ICR)fBR) (oral, 1,000 mg/Kg); 0/3 in the data set on male mice (Sim:(ICR)fBR) (oral, 1,500 mg/Kg). Moreover, the LD50 in data set [3] (ip, intraperitoneal, read-out: LD50 (intraperitoneal)) was over 1500 mg/kg; in data set [3] (oral, read-out: LD50 (oral)), over 1500 mg/kg.

A word on the IC50: it is the concentration at which inhibition is half-maximal. A high value points to weaker potency. Usually LD50 stands for the dose at which mortality reaches 50%.
